This note sets out measurements from paper PMC6758606, “Novel 2-substituted-benzimidazole-6-sulfonamides as carbonic anhydrase inhibitors: synthesis, biological evaluation against isoforms I, II, IX and XII and molecular docking studies” (Journal of Enzyme Inhibition and Medicinal Chemistry, 2019).

For orientation: Ki means a dissociation constant, usually derived from enzyme kinetics or from competition with a known ligand.

Holding throughout (type): biochemical
One assay addresses T1, hCA II (Homo sapiens, UniProt P00918).
T1 construct: made in house
Put plainly: stopped-flow CO2 hydrase assay, hCA II. The note with it: recombinant enzyme, mean from 3 different assays, errors ± 5–10%. The method, then:
(§1) An Applied Photophysics stopped-flow instrument has been used for assaying the CA-catalysed CO2 hydration activity. Phenol red (at a concentration of 0.2 mM) has been used as indicator, working at the absorbance maximum of 557 nm, with 20 mM Hepes (pH 7.5) as buffer, and 20 mM Na2SO4 (for maintaining constant the ionic strength), following the initial rates of the CA-catalysed CO2 hydration reaction for a period of 10–100 s. CO2 concentrations ranged from 1.7 to 17 mM for the determining inhibition constants. […] Uncatalyzed rates were determined in the same manner and subtracted from the total observed rates. Stock solutions of inhibitor (0.1 mM) were prepared in buffer with a maximum 3% DMSO, and dilutions up to 0.01 nM were done with the assay buffer. Inhibitor and enzyme solutions were preincubated for 15 min at room temperature prior to assay, in order to allow for the formation of the E–I complex. The inhibition constants were obtained by nonlinear least-squares methods using PRISM 3 and the Cheng-Prusoff equation, as reported earlier, and represent the mean from at least three different determinations. All CA isoforms were recombinant ones obtained in-house as reported earlier.
(§2) AAZ 1 was used as the standard drug in the assay.

A further assay concerns the target T2, hCA IX (Homo sapiens, UniProt Q16790).
T2 construct: made in house
Put plainly: stopped-flow CO2 hydrase assay, hCA IX. The note with it: for Ki: recombinant enzyme, stopped-flow CO2 hydrase assay, mean from 3 different assays, errors ± 5–10%; for SR IX/II (Selectivity Ratio): selectivity for inhibiting hCA IX over hCA II (values equal Ki hCA II / Ki hCA IX). The method, then: as §1, §2

In the next assay the target is T3, hCA I (Homo sapiens, UniProt P00915).
T3 construct: made in house
T3 sequence (P00915 whole entry): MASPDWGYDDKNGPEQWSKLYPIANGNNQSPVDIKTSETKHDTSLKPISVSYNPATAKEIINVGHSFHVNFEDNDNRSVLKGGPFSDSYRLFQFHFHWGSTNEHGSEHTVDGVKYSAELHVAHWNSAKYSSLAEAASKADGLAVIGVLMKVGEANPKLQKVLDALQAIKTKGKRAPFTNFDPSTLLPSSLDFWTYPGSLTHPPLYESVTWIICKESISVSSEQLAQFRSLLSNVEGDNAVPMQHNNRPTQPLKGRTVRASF
Put plainly: stopped-flow CO2 hydrase assay, hCA I. The note with it: recombinant enzyme, mean from 3 different assays, errors ± 5–10%. The method, then:
as §1, §2

The target of a further assay is T4, hCA XII (Homo sapiens, UniProt O43570).
T4 construct: made in house
T4 sequence (O43570 25-354): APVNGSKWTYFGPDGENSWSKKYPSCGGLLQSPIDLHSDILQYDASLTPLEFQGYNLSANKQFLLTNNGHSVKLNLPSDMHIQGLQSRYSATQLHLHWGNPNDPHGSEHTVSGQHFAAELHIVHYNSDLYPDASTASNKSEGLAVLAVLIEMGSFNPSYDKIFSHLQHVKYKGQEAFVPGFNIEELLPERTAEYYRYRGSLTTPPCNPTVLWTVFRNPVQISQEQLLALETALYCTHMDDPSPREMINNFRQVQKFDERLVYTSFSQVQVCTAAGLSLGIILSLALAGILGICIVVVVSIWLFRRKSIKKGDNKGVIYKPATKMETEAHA
Put plainly: stopped-flow CO2 hydrase assay, hCA XII. The note with it: for Ki: recombinant enzyme, stopped-flow CO2 hydrase assay, mean from 3 different assays, errors ± 5–10%; for SR XII/II (Selectivity Ratio): selectivity for inhibiting hCA XII over hCA II (values equal Ki hCA II / Ki hCA XII). The method, then:
as §1, §2

Regarding `NS(=O)(=O)c1ccc2nc(-c3ccc(O)cc3)[nH]c2c1` [Compound 6, 2-(4-Hydroxyphenyl)-1H-benzo[d]imidazole-6-sulfonamide], the Ki was 101 nM on hCA II, 17.4 nM at hCA IX, 238 nM at hCA I and 44.1 nM at hCA XII. In addition, the “SR IX/II (Selectivity Ratio)” value on hCA IX was 5.8. The “SR XII/II (Selectivity Ratio)” value at hCA XII worked out at 2.3.
For `NS(=O)(=O)c1ccc2nc(Cc3ccc(O)cc3)[nH]c2c1` [Compound 7, 2-(4-Hydroxybenzyl)-1H-benzo[d]imidazole-6-sulfonamide], the Ki at hCA II amounted to 91.9 nM; on hCA IX it was 73.9 nM; at hCA I, 442 nM; on hCA XII it was 63.8 nM. Further, the “SR IX/II (Selectivity Ratio)” value at hCA IX turned out to be 1.2. Also, at hCA XII, the “SR XII/II (Selectivity Ratio)” value is on record as 1.4.
As for `NS(=O)(=O)c1ccc2nc(CCc3ccc(O)cc3)[nH]c2c1` [Compound 8, 2-(4-Hydroxyphenethyl)-1H-benzo[d]imidazole-6-sulfonamide], the Ki on hCA II came out at 47.8 nM; at hCA IX it was 14.4 nM; at hCA I, 214 nM; on hCA XII, 9.8 nM. On hCA IX, the “SR IX/II (Selectivity Ratio)” value turned out to be 3.3. On hCA XII, the “SR XII/II (Selectivity Ratio)” value turned out to be 4.9.
For `NS(=O)(=O)c1ccc2nc(-c3ccccc3)[nH]c2c1` [Compound 9, 2-Phenyl-1H-benzo[d]imidazole-6-sulfonamide], the Ki at hCA II worked out at 104 nM; at hCA IX it was 47.6 nM; at hCA I, 92.8 nM; on hCA XII, 78.9 nM. Moreover, the “SR IX/II (Selectivity Ratio)” value at hCA IX is 2.2. Also, the “SR XII/II (Selectivity Ratio)” value on hCA XII came out at 1.3.
As for `COC(=O)c1ccc(-c2nc3ccc(S(N)(=O)=O)cc3[nH]2)cc1` [Compound 10, Methyl 4-(6-sulfamoyl-1H-benzo[d]imidazol-2-yl)benzoate], the Ki at hCA II is 185 nM; at hCA IX, 29.6 nM; at hCA I, 208 nM; at hCA XII, 72.2 nM. Also, the “SR IX/II (Selectivity Ratio)” value on hCA IX worked out at 6.3. Further, the “SR XII/II (Selectivity Ratio)” value at hCA XII stood at 2.6.
With `NS(=O)(=O)c1ccc2nc(-c3ccc(C(=O)O)cc3)[nH]c2c1` [Compound 11, 4-(6-Sulfamoyl-1H-benzo[d]imidazol-2-yl)benzoic acid], the Ki at hCA II is 133 nM; at hCA IX it was 64.3 nM; on hCA I, 97.6 nM; at hCA XII, 57 nM. Also, the “SR IX/II (Selectivity Ratio)” value on hCA IX was found to be 2.1. Further, the “SR XII/II (Selectivity Ratio)” value at hCA XII is recorded as 2.3.
Consider `NS(=O)(=O)c1ccc2nc(-c3ccc(O)c(O)c3)[nH]c2c1` [Compound 12, 2-(3,4-Dihydroxyphenyl)-1H-benzo[d]imidazole-6-sulfonamide], for which the Ki at hCA II turned out to be 79 nM; on hCA IX, 41.6 nM; on hCA I it was 169 nM; at hCA XII, 8.5 nM. Also, the “SR IX/II (Selectivity Ratio)” value at hCA IX was 1.9.
Consider `COC(=O)c1cc(-c2nc3ccc(S(N)(=O)=O)cc3[nH]2)ccc1O` [Compound 13, Methyl 2-hydroxy-5-(6-sulfamoyl-1H-benzo[d]imidazol-2-yl)benzoate], for which the Ki at hCA II was determined as 50.8 nM; at hCA IX it was 2.2 nM; at hCA I, 126 nM; on hCA XII, 22.3 nM. The “SR IX/II (Selectivity Ratio)” value at hCA IX is 23.1. For the same compound, the “SR XII/II (Selectivity Ratio)” value on hCA XII was found to be 2.3.
`NS(=O)(=O)c1ccc2nc(-c3ccc(O)c(C(=O)O)c3)[nH]c2c1` [Compound 14, 2-hydroxy-5-(6-sulfamoyl-1H-benzo[d]imidazol-2-yl)benzoic acid]: the Ki turned out to be 68.6 nM on hCA II, 34.2 nM on hCA IX, 95.6 nM on hCA I and 3.8 nM on hCA XII. For the same compound, the “SR IX/II (Selectivity Ratio)” value at hCA IX was 2.0. The “SR XII/II (Selectivity Ratio)” value on hCA XII was found to be 18.1.
Consider `CCNS(=O)(=O)c1ccc2nc(-c3ccc(O)c(C(=O)OC)c3)[nH]c2c1` [Compound 15, Methyl 5-(6-(N-ethylsulfamoyl)-1H-benzo[d]imidazol-2-yl)-2-hydroxybenzoate], for which the Ki on hCA II was 8920 nM; on hCA IX it was 390 nM; on hCA I it was more than 10000 nM; at hCA XII, 813 nM.
`CCNS(=O)(=O)c1ccc2nc(-c3ccc(O)c(C(=O)O)c3)[nH]c2c1` [Compound 16, 5-(6-(N-ethylsulfamoyl)-1H-benzo[d]imidazol-2-yl)-2-hydroxybenzoic acid]: the Ki on hCA II was 7580 nM; at hCA IX it was 665 nM; at hCA I, more than 10000 nM; at hCA XII, 464 nM.
Turning to `COC(=O)c1cc(CCc2nc3ccc(S(N)(=O)=O)cc3[nH]2)ccc1O` [Compound 17, Methyl 2-hydroxy-5-(2-(6-sulfamoyl-1H-benzo[d]imidazol-2-yl)ethyl)benzoate], the Ki amounted to 52.7 nM on hCA II, 5.9 nM on hCA IX, 427 nM at hCA I and 7.9 nM on hCA XII. Also, the “SR IX/II (Selectivity Ratio)” value at hCA IX is 8.9. Also, on hCA XII, the “SR XII/II (Selectivity Ratio)” value was 6.7.
`NS(=O)(=O)c1ccc2nc(CCc3ccc(O)c(C(=O)O)c3)[nH]c2c1` [Compound 18, 2-Hydroxy-5-(2-(6-sulfamoyl-1H-benzo[d]imidazol-2-yl)ethyl)benzoic acid]: the Ki on hCA II is 24.8 nM; on hCA IX it was 7.6 nM; at hCA I, 441 nM; at hCA XII, 4.2 nM. Moreover, the “SR IX/II (Selectivity Ratio)” value at hCA IX stood at 3.3. In addition, the “SR XII/II (Selectivity Ratio)” value at hCA XII is given as 5.9.
In the case of `NC(=O)c1ccc2nc(-c3ccc(O)c(C(=O)O)c3)[nH]c2c1` [Compound 19, 5-(6-Carbamoyl-1H-benzo[d]imidazol-2-yl)-2-hydroxybenzoic acid], the Ki on hCA II, on hCA IX, at hCA I and at hCA XII was more than 10000 nM throughout.
